This is an account of results in patent US9539249B2, “PPAR gamma agonists for treatment of multiple sclerosis” (InteKrin Therapeutics, Inc., priority 2013, dated 2017).

SMILES strings stand for the structures. “Also recorded” adds a separate entry of the source. Like-named read-outs stand apart in the source and are kept apart here.

The test system of one data set is EAE. Kind of data set: EAE relapse model, INT131 treatment begun at first remission. In kind it is in vivo, mice. Conditions: for clinical course from the 22nd day following immunization: treated from day 20, vehicle animals relapsed; for relapse rate (percent of animals relapsed): 25th day post-immunization, vehicle 72 percent. An excerpt: EAE is a well-characterized and widely used model of MS. It is one of the few animal models in which drug therapeutic activity in the model often mimics and anticipates the drug's effects in human disease. In this model, mice are immunized with well-defined antigenic fragments of central nervous system myelin, such as fragments of the proteolipid protein (PLP). Over the course of 2 to 3 weeks the immunized animals develop a clinical and histopathologic syndrome of T-cell mediated cerebral autoimmunity that is highly reminiscent of relapsing/remitting MS (RRMS). The similarities between EAE and RRMS include inflammatory cerebral infiltrated and accompanying Th1/Th17 responses to both the disease initiating myelin PLP peptide, and subsequent epitope spread, seen in disease relapse. The animals were immunized with the myelin peptide (PLP^139-151) and the spread epitope peptide (PLP^178-191) which drives disease relapse. Studies consisted of three experimental arms in which the mice were given daily ip injection of vehicle, or either 1 or 3 mg/kg/d of INT131. Following immunization, the animals underwent daily neurological evaluation by an experienced investigator. In these studies treatment began at the time of the first remission. […] Following the expected clinical disease peak at about two weeks post-immunization, symptoms began to ebb as the animals drifted into remission. All of the animals were treated with INT131 on day 20. By the 22nd day following immunization relapse began as expected, however, only in the vehicle treated animals.

In data set [1] the test system is infiltrating CD45-positive leukocytes. Kind of data set: CD45-positive leukocyte infiltration in brainstem of EAE mice treated at the peak of disease. In kind it is in vivo. An excerpt: Initiating INT131 treatment during remission extends the time subjects remain relapse-free, as compared to vehicle/placebo treatment. However, because there is little active neuroinflammation during remission, this paradigm is not informative about the effects of INT131 on acute neuroinflammation. To better understand the effects of INT131 on the acute inflammatory response we treated mice with EAE at the height of the clinical disease. […] INT131 treatment was begun at the peak of disease (day 20) and brainstems were harvested at day 32, and stained with αCD45 to identify infiltrating leukocytes. CD45 (also known as Leukocyte Common Antigen) is expressed on all hematopoietic cells except erythrocytes and platelets, and is required for B- and T cell-receptor-mediated activation. Thus, CD45 is critical in mediating the inflammatory process. […] These findings unify the clinical and histological findings that INT131 is a potent and effective treatment of acute neuroinflammation in this model of RRMS.

Data set [2] can be described thus: Tissue distribution of [3H]INT131 after intraperitoneal injection (penetration of the intact BBB). In kind it is in vivo, Sprague-Dawley rats. Conditions: for concentration at 6 h: 6 h after ~50 mg/kg ip; for concentration at 24 h: 24 h after ~50 mg/kg ip. As for the experimental part:
(§1) To test whether INT131 is able to penetrate the intact BBB INT131 was radiolabeled with tritium (“[^3H]INT131”), prior to intraperitoneal injection into adult Sprague-Dawley rats. The purity of the radiolabeled INT131 was determined by high-performance liquid chromatography (HPLC) fractionation prior to injection, and again at the close of the experiment. […] The test animals were sacrificed at 1, 6 and 24 hours after injection and blood, brain, cerebrospinal fluid (“CSF”), spinal cord, kidney, liver and small bowel were harvested for determination of [^3H]INT131 content by liquid scintillography.

A short description of data set [3]: HPLC fractionation of radiolabeled INT131 before injection and at the close of the experiment. In kind it is physicochemical. Conditions: prior to injection and at the close of the experiment. On the procedure:
as §1

Where [4] appears, read: Sprague-Dawley, CSF, intraperitoneal, rat, read-out: INT131 concentration in CSF.
Where [5] appears, read: Sprague-Dawley, blood, intraperitoneal, rat, read-out: INT131 concentration in Blood.
Where [6] appears, read: Sprague-Dawley, brain, intraperitoneal, rat, read-out: INT131 concentration in Brain.
Where [7] appears, read: Sprague-Dawley, kidney, intraperitoneal, rat, read-out: INT131 concentration in Kidney.
Setting [8] is: Sprague-Dawley, liver, intraperitoneal, rat, read-out: INT131 concentration in Liver.
[9] abbreviates: Sprague-Dawley, small bowel, intraperitoneal, rat, read-out: INT131 concentration in Small bowel.
[10] abbreviates: Sprague-Dawley, spinal cord, intraperitoneal, rat, read-out: INT131 concentration in Spinal cord.

On to `O=S(=O)(Nc1cc(Cl)c(Oc2cnc3ccccc3c2)c(Cl)c1)c1ccc(Cl)cc1Cl` [INT131], for which the “clinical course from the 22nd day following immunization” value in the data set with EAE (1 mg/kg) was “continued to improve slightly”; in the data set with EAE (3 mg/kg), “remained stable”. For the same compound, the “relapse rate (percent of animals relapsed)” value with EAE (1 mg/kg/d ip) stood at 9%; in the data set with EAE (3 mg/kg/d ip), 16%. In addition, in the data set on EAE (in comparison to vehicle treated mice), the “disease burden among treated animals that relapse” value was “exceptionally mild”. In the data set on EAE (mouse, in vivo), the “symptoms of animals with EAE” value is “becoming and remaining mostly symptom-free”. Also, the effect on relapse result in the data set on EAE (treatment begun at first remission) is recorded as “virtually blocks relapse”. Further, the clinical symptoms result in data set [1] (treatment at the height of clinical disease) was “rapid improvement in clinical symptoms”. Besides, in data set [1] (treatment from day 20 (peak of disease), brainstems harvested day 32, either concentration, compared to vehicle), the “infiltrating CD45-positive leukocytes in brainstem” value is recorded as “paucity of infiltrating CD45-positive leukocytes; also recorded: paucity of infiltrating white cells”. In addition, the concentration at 1 h was 292 ng/g in data set [2] (Sprague-Dawley, CSF, intraperitoneal, 1 h after ~50 mg/kg ip, rat, read-out: INT131 concentration in CSF); 4050 ng/g in data set [2] (Sprague-Dawley, blood, intraperitoneal, 1 h after ~50 mg/kg ip, rat, read-out: INT131 concentration in Blood); 569 ng/g in data set [2] (Sprague-Dawley, brain, intraperitoneal, 1 h after ~50 mg/kg ip, rat, read-out: INT131 concentration in Brain); 7730 ng/g in data set [2] (Sprague-Dawley, kidney, intraperitoneal, 1 h after ~50 mg/kg ip, rat, read-out: INT131 concentration in Kidney); 24400 ng/g in data set [2] (Sprague-Dawley, liver, intraperitoneal, 1 h after ~50 mg/kg ip, rat, read-out: INT131 concentration in Liver); less than 500 ng/g in data set [2] (Sprague-Dawley, rat, neural compartments (brain tissue), intraperitoneal, one hour after single administration of ~50 mg/kg, read-out: average amount of INT131 in the neural compartments). The concentration at 1 h amounted to 19700 ng/g in data set [2] (Sprague-Dawley, small bowel, intraperitoneal, 1 h after ~50 mg/kg ip, rat, read-out: INT131 concentration in Small bowel) and 478 ng/g in data set [2] (Sprague-Dawley, spinal cord, intraperitoneal, 1 h after ~50 mg/kg ip, rat, read-out: INT131 concentration in Spinal cord). For the same compound, the concentration at 6 h is 2860 ng/g in data set [2] (setting [4]); 41800 ng/g in data set [2] (setting [5]); 5980 ng/g in data set [2] (setting [6]); 32900 ng/g in data set [2] (setting [7]); 141000 ng/g in data set [2] (setting [8]); 223000 ng/g in data set [2] (setting [9]). The concentration at 6 h in data set [2] (setting [10]) is 4810 ng/g. In addition, the concentration at 24 h amounted to 5300 ng/g in data set [2] (setting [4]); 17900 ng/g in data set [2] (setting [5]); 4650 ng/g in data set [2] (setting [6]); 15400 ng/g in data set [2] (setting [7]); 36400 ng/g in data set [2] (setting [8]); 34500 ng/g in data set [2] (setting [9]). Besides, in data set [2] (setting [10]), the concentration at 24 h amounted to 4310 ng/g. Further, the Kp at 6 h in data set [2] (Sprague-Dawley, rat, brain and spinal cord relative to blood, intraperitoneal, 50 mg/kg, 6 hours after injection, read-out: level of INT131 in brain and spinal cord relative to the level found in blood) was approximately 0.1. In data set [2] (Sprague-Dawley, rat, brain and spinal cord, intraperitoneal, 50 mg/kg, 1 day after injection, read-out: absolute amount of INT131 in the brain and spinal cord), the concentration at 1 day was more than 4000 ng/g. Besides, the Kp at 24 h in data set [2] (Sprague-Dawley, rat, neural tissues relative to circulation (blood), intraperitoneal, 50 mg/kg, 24 hours after injection, read-out: level of INT131 in neural tissues relative to that found in the circulation) is 0.25. The “increase of the amount of INT131 in the neural tissues versus 1 hour” value in data set [2] (at 6 and 24 hours) is given as “approximately 10 fold”. Besides, in data set [2] (one hour after single administration of ~50 mg/kg), the “amount in neural compartments, fold less than that found in the circulation” value is listed as “approximately 10 fold”.
On to `O=S(=O)(Nc1cc(Cl)c(Oc2cnc3ccccc3c2)c(Cl)c1)c1ccc(Cl)cc1Cl` [[^3H]INT131], for which the “stability of radiolabeled material over the course of the study (HPLC)” value in data set [3] is recorded as “virtually all of the radiolabeled material was found in a single peak”.
